pIC50: −log10 of the molar value. Read-outs that look alike come from different tables or passages of the source.
Biological target: T1, mouse TMEM16A mutant P595A (Mus musculus, UniProt Q8BHY3, P595A)
T1 construct: expressed in transfected cells; host or cells: HEK293T
T1 sequence (Q8BHY3 1-960 P595A): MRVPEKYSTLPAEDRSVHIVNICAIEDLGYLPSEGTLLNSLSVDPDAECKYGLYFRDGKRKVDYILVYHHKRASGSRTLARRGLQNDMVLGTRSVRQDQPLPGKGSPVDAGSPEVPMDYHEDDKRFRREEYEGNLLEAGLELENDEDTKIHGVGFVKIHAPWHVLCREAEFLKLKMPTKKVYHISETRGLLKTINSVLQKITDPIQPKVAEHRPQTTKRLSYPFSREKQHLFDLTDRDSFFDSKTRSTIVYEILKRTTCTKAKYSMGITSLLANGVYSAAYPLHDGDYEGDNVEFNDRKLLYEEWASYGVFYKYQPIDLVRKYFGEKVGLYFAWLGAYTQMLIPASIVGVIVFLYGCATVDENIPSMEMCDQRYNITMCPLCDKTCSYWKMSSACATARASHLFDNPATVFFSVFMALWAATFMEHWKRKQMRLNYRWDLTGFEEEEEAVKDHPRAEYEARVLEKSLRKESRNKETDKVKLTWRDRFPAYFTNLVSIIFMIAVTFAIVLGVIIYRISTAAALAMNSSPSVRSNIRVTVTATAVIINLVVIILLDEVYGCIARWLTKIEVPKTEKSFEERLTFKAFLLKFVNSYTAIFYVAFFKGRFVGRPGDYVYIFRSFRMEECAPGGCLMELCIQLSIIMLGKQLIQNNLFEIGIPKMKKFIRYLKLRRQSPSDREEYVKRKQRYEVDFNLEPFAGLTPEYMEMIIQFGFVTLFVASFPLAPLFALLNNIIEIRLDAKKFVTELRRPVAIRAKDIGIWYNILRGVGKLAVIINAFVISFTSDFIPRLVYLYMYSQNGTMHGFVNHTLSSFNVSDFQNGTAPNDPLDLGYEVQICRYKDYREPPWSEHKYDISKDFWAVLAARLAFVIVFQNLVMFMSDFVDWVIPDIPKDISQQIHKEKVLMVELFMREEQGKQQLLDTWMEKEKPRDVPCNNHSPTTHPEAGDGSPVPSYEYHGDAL
Test: Inside-out patch recording of 1PBC block, mutant P595A
Format: cell-based
Conditions: for remaining activity at 1 µM: 1PBC conc 1; for remaining activity at 1 µM / remaining activity at 3 µM / remaining activity at 10 µM / remaining activity at 30 µM: read-out: relative current in 1PBC (avr); for remaining activity at 3 µM: 1PBC conc 3; for remaining activity at 10 µM: 1PBC conc 10; for remaining activity at 30 µM: 1PBC conc 30
Protocol: HEK293T cells (ATCC CRL-1573) were maintained in Dulbecco’s modified Eagle’s medium (DMEM; Sigma-Aldrich) supplemented with 10 U ml^−1 penicillin, 0.1 mg ml^−1 streptomycin (Sigma-Aldrich), 2 mM L-glutamine (Sigma-Aldrich), and 10% FBS (Sigma-Aldrich) in a humidified atmosphere containing 5% CO2 at 37 °C. HEK293S GnTI^− cells (ATCC CRL-3022) were maintained in HyClone HyCell TransFx-H medium (GE Healthcare) supplemented with 10 U ml^−1 penicillin, 0.1 mg ml^−1 streptomycin, 4 mM L-glutamine, 0.15% poloxamer 188 (Sigma-Aldrich), and 1% FBS in an atmosphere containing 5% CO2 at 185 rpm at 37 °C. The ac splice variant of mouse TMEM16A (UniProt ID: Q8BHY3), mouse TMEM16B (UniProt ID: Q8CFW1), or mouse TMEM16F (UniProt ID: Q6P9J9) bearing a 3C cleavage site, a Venus YFP, a Myc tag, and a Streptavidin-binding peptide (SBP) downstream of the open reading frame in a modified pcDNA3.1 vector (Invitrogen) were used as described previously[21],[31]. Mutations were introduced using a modified QuikChange method[58] and were verified by sequencing.
HEK293T cells were transfected with 3–4 μg DNA per 6 cm Petri dish using the calcium phosphate co-precipitation method and were used within 24–96 h after transfection. Recordings were performed on inside-out patches excised from HEK293T cells expressing the construct of interest. Patch pipettes were pulled from borosilicate glass capillaries (O.D. 1.5 mm, I.D. 0.86 mm, Sutter Instrument) and were fire-polished with a microforge (Narishige) before use. Pipette resistance was typically 3–8 MΩ when filled with the recording solutions detailed below. Seal resistance was typically 4 GΩ or higher. Voltage-clamp recordings were made using Axopatch 200B, Digidata 1550, and Clampex 10.7 (Molecular Devices). Analog signals were filtered with the in-built 4-pole Bessel filter at 10 kHz and were digitized at 20 kHz. Solution exchange was achieved using a gravity-fed system through a theta glass pipette mounted on an ultra-fast piezo-driven stepper (Siskiyou). […] All recordings were performed at 20 °C.
A symmetrical ionic condition was used throughout. Stock solution with Ca^2+-EGTA contained 150 mM NaCl, 5.99 mM Ca(OH)2, 5 mM EGTA, and 10 mM HEPES at pH 7.40. Stock solution with EGTA contained 150 mM NaCl, 5 mM EGTA, and 10 mM HEPES at pH 7.40. Free Ca^2+ concentrations were adjusted by mixing the stock solutions at the required ratios calculated using the WEBMAXC program (http://web.stanford.edu/~cpatton/webmaxcS.htm). Patch pipettes were filled with the stock solution with Ca^2+-EGTA, which has a free Ca^2+ concentration of 1 mM. 1PBC (ChemBridge) stock was reconstituted in anhydrous DMSO (Sigma-Aldrich) at 100 mM and stored at −20 °C. Working solutions with 1PBC were prepared by serial dilution. Unless otherwise stated, experiments were performed at a saturating Ca^2+ concentration as shown in Supplementary Table 1 and the primary data were corrected for current rundown as described previously[21],[25].
Concentration-response relations, obtained from the ratio of the I-V plots before and after the application of the blocker, were fitted to the Hill equation,1 I/Imax=1/1+IC50/[blocker]^h where I/Imax is the normalized current responses, IC50 defines the concentration at which inhibition is at its half-maximum, and h is the Hill coefficient.

- pIC50 (0 mV, 2 µM Ca2+): 5.51
- remaining activity at 1 µM (0 mV): 75.3%
- remaining activity at 3 µM (0 mV): 48.8%
- remaining activity at 10 µM (0 mV): 25.9%
- remaining activity at 30 µM (0 mV): 11.1%
- pIC50 (20 mV, 2 µM Ca2+): 5.61
- remaining activity at 1 µM (20 mV): 70.9%
- remaining activity at 3 µM (20 mV): 43%
- remaining activity at 10 µM (20 mV): 22.6%
- remaining activity at 30 µM (20 mV): 8.98%
- pIC50 (40 mV, 2 µM Ca2+): 5.70
- remaining activity at 1 µM (40 mV): 66.5%
- remaining activity at 3 µM (40 mV): 38.4%
- remaining activity at 10 µM (40 mV): 19%
- remaining activity at 30 µM (40 mV): 7.73%
- pIC50 (60 mV, 2 µM Ca2+): 5.76
- remaining activity at 1 µM (60 mV): 64.4%
- remaining activity at 3 µM (60 mV): 34.6%
- remaining activity at 10 µM (60 mV): 16.9%
- remaining activity at 30 µM (60 mV): 7.56%
- pIC50 (80 mV, 2 µM Ca2+): 5.80
- remaining activity at 1 µM (80 mV): 61.3%
- remaining activity at 3 µM (80 mV): 32.5%
- remaining activity at 10 µM (80 mV): 15.9%
- remaining activity at 30 µM (80 mV): 7.06%
- pIC50 (100 mV, 2 µM Ca2+): 5.83
- remaining activity at 1 µM (100 mV): 60.2%
- remaining activity at 3 µM (100 mV): 31%
- remaining activity at 10 µM (100 mV): 15.3%
- remaining activity at 30 µM (100 mV): 6.31%
- pIC50 (120 mV, 2 µM Ca2+): 5.79
- remaining activity at 1 µM (120 mV): 64.3%
- remaining activity at 3 µM (120 mV): 31.5%
- remaining activity at 10 µM (120 mV): 15.7%
- remaining activity at 30 µM (120 mV): 6.66%
- pIC50 (140 mV, 2 µM Ca2+): 5.72
- remaining activity at 1 µM (140 mV): 70.3%
- remaining activity at 3 µM (140 mV): 33.2%
- remaining activity at 10 µM (140 mV): 17.5%
- remaining activity at 30 µM (140 mV): 7.54%
- pIC50 (-20 mV, 2 µM Ca2+): 5.41
- remaining activity at 1 µM (-20 mV): 79.6%
- remaining activity at 3 µM (-20 mV): 54.6%
- remaining activity at 10 µM (-20 mV): 29.2%
- remaining activity at 30 µM (-20 mV): 13.3%
- pIC50 (-40 mV, 2 µM Ca2+): 5.31
- remaining activity at 1 µM (-40 mV): 84%
- remaining activity at 3 µM (-40 mV): 59.7%
- remaining activity at 10 µM (-40 mV): 33.9%
- remaining activity at 30 µM (-40 mV): 15.9%
- pIC50 (-60 mV, 2 µM Ca2+): 5.23
- remaining activity at 1 µM (-60 mV): 87.1%
- remaining activity at 3 µM (-60 mV): 62.7%
- remaining activity at 10 µM (-60 mV): 37.7%
- remaining activity at 30 µM (-60 mV): 18.7%
- pIC50 (-80 mV, 2 µM Ca2+): 5.15
- remaining activity at 1 µM (-80 mV): 88.8%
- remaining activity at 3 µM (-80 mV): 67.8%
- remaining activity at 10 µM (-80 mV): 41.3%
- remaining activity at 30 µM (-80 mV): 21%
- pIC50 (-100 mV, 2 µM Ca2+): 5.09
- remaining activity at 1 µM (-100 mV): 90.4%
- remaining activity at 3 µM (-100 mV): 70.3%
- remaining activity at 10 µM (-100 mV): 45%
- remaining activity at 30 µM (-100 mV): 24%
- pIC50 (-120 mV, 2 µM Ca2+): 5.03
- remaining activity at 1 µM (-120 mV): 92.2%
- remaining activity at 3 µM (-120 mV): 72.9%
- remaining activity at 10 µM (-120 mV): 47.9%
- remaining activity at 30 µM (-120 mV): 26.1%
- pIC50 (-140 mV, 2 µM Ca2+): 4.98
- remaining activity at 1 µM (-140 mV): 93.8%
- remaining activity at 3 µM (-140 mV): 75.4%
- remaining activity at 10 µM (-140 mV): 50.3%
- remaining activity at 30 µM (-140 mV): 28.4%
- pIC50 (P595A, V 0 mV): 5.51
- pIC50 (P595A, V 20 mV): 5.61
- pIC50 (P595A, V 40 mV): 5.70
- pIC50 (P595A, V 60 mV): 5.76
- pIC50 (P595A, V 80 mV): 5.80
- pIC50 (P595A, V 100 mV): 5.83
- pIC50 (P595A, V 120 mV): 5.79
- pIC50 (P595A, V 140 mV): 5.72
- pIC50 (P595A, V -20 mV): 5.41
- pIC50 (P595A, V -40 mV): 5.31
- pIC50 (P595A, V -60 mV): 5.23
- pIC50 (P595A, V -80 mV): 5.15
- pIC50 (P595A, V -100 mV): 5.09
- pIC50 (P595A, V -120 mV): 5.03
- pIC50 (P595A, V -140 mV): 4.98
Compound: N#Cc1c(C(F)(F)F)cc(O)n2c1nc1ccccc12 [1PBC]
